# Where a SMILES comes first, the peptide text is derived from it. The star is where a group is joined. Tos = Cc1ccc(S(=O)(=O)*)cc1; CH2Cl = ClC*
# Key:
# [1] = test system: U87 glioma cells; assay: U87 glioma cell proliferation (XTT); assay type: cell-based, human; details: 72 h
# Protocol: CNS-1, C6, and U87 rat and human glioma cells were grown in Dulbecco's modified Eagle's medium (DMEM; Bet Haemek, Biological Industries, Israel) supplemented with 10% fetal bovine serum (Bet Haemek, Biological Industries, Israel) and 1% penicillin and streptomycin in a 5% CO2-humidified atmosphere.
# Cell proliferation was evaluated using a 2.3-Bis-(2-methoxy-4-nitro-5-sulfophenyl)-2H-tetrazolium-5-carboxyanilide salt (XTT)-based cell proliferation assay kit (Bet Haemek, Biological Industries, Israel). U87 cells were seeded in 96-well plates (5 × 10^3 cells/well) and incubated for 24 h. The medium was then removed, the tested molecules (10^−13-10^−4 M final concentration) were added in FCS-free medium and introduced to the cells for 72 h. After choosing SIXAC as the leading molecule, it was tested in a similar way in CNS-1 cells (SIXAC 1 μM final concentration). XTT solution (50 μl) was added to each well and incubated for 3 h at 37°C. The optical density (OD) of each well was recorded at 450 and 630 nm in a microplate reader (Infinite M200, Tecan, Durham, NC, USA). Cell viability was expressed as the percentage (ODtest–ODblank)/(ODcontrol–ODblank), where ODtest is the optical density of cells exposed to SIXAC treatment, ODcontrol is the optical density of the control sample, and ODblank is the optical density of wells without glioma cells.
# [2] = test system: PAR1; details: use limited; ref [34] Gao et al., 2015; cited from earlier work
# From the text: Numerous findings support the involvement of the thrombin-PAR1 pathway in glioma pathology ([8], [13], [18]). We have previously found a positive correlation between edema size and PAR1 expression in an animal model of GBM ([19]). […] In addition to the direct thrombin-PAR1 effects on glioma cells, PARs play a crucial role in the control of angiogenesis and vascular permeability by regulating the release of endostatin and vascular endothelial growth fac ...
# [3] = test system: thrombin mediated PAR1 activation (pERK/ERK) in CNS-1 cells; assay: ERK activation (pERK/ERK, Western blot) in CNS-1 cells; assay type: cell-based, rat; details: thrombin 1 U/ml, 10 min, FCS-free; n = 3; control 1 ± 0.07; p < 0.03 vs. control
# Protocol: Cells were seeded (1 × 10^6 cells/75 cm^2 flask) and incubated for 24 h. Then the medium was replaced by FCS-free medium for another 24 h. The cells were treated for 10 min with thrombin (1 U/ml), SIXAC (100 nM), a combination of thrombin and SIXAC or a FCS-free medium which was used as a control (n = 3 for each treatment). The cells were washed and lysed in RIPA buffer (containing in mM: 50 TRIS HCl pH 8, 150 NaCl, 1% NP-40, 0.5% sodium deoxycholate, and 0.1% SDS), a protease inhibitor cocktail (Merck Millipore 539134, 1:100), 0.1 mM sodium orthovanadate and 2 mM PMSF. The cells were scraped, collected and centrifuged (16,000g × 20 min) at 4°C. The supernatants were collected, and protein concentration was determined by means of a bicinchoninic acid (BCA) assay. Each sample (20 μg) was separated by SDS-polyacrylamide gel electrophoresis. The proteins were transferred onto nitrocellulose membranes. Membranes were incubated with mouse anti-phosphorylated Extracellular signal-Regulated Kinase (pERK) antibody (1:10,000, M8159, Sigma), for 1.5 h at room temperature (RT) and washed with Tris-buffered saline and 0.1% Tween 20 (TBST). Membranes were then incubated at RT with horseradish peroxidase-conjugated goat anti-mouse antibody (1:10,000, Jackson Immunoresearch Laboratories). […] Protein bands were detected by a peroxidase-based enhanced chemiluminescence (ECL) method. […]
compound,measurement,setting,value
Cc1ccc(S(=O)(=O)N[C@@H](CC(=O)O)C(=O)N2CCC[C@H]2C(=O)N[C@@H](CCCNC(=N)N)C(=O)CCl)cc1 [3AACK] (Tos-Asp-Pro-Arg-CH2Cl),"U87 proliferation rate (""inhibit proliferation at a rate of"")","[1]; 10^−5M, FCS-free medium, mean ± SEM, 3AACK vs. 6AACK p < 0.035",0.58 ± 0.046
same,"U87 proliferation inhibition, compared with 6AACK","[1]; 10^−8M, p = 0.7","inhibits more efficiently the proliferation rate when compared to 6AACK at a concentration of 10^−8M, this was found to be non-significant"
CCOC(=O)N[C@@H]1CC[C@@H]2[C@@H](C1)C[C@H]1C(=O)O[C@H](C)[C@H]1[C@H]2/C=C/c1ccc(-c2cccc(F)c2)cn1 [Vorapaxar],bleeding side-effects,[2],limited due to bleeding side-effects
thrombin,"pERK/ERK ratio, thrombin alone",[3],2.09 ± 0.28
